Assay results from PMC8184619 (Molecular immunology, 2021).

Tests used:
Type in all cases: cell-based
[1] = system: R6C12 TCR-transduced CD8+ Jurkat T cells
[2] = system: T4H2 TCR-transduced CD8+ Jurkat T cells
[3] = system: SILv44 TCR-transduced CD8+ Jurkat T cells

- EC50 [1]: 11000 ± 3000 nM
- EC50 [2]: 300 ± 100 nM
- EC50 [3]: 1400 ± 300 nM
Structure (SMILES): CC[C@H](C)[C@H](N)C(=O)N[C@@H](CC(C)C)C(=O)N[C@@H](CC(=O)O)C(=O)N[C@@H](CCC(N)=O)C(=O)N[C@H](C(=O)N1CCC[C@H]1C(=O)N[C@@H](Cc1ccccc1)C(=O)N[C@@H](CO)C(=O)N[C@H](C(=O)O)C(C)C)C(C)C [T2Leu]
